Laboratory results as given in patent publication US20240246967A1, “AXL COMPOUNDS” (ARCUS BIOSCIENCES, INC., priority 2021, published 2024).

Tests used:
[1] = molecular target: T1, Axl (Homo sapiens, UniProt P30530); experiment: HTRF KinEASE-TK biochemical potency assay, AXL; parameters: purchased Invitrogen; settings: 5 nM AXL, 700 μM ATP, 800 nM TK Substrate-biotin
T1 sequence (P30530 26-894): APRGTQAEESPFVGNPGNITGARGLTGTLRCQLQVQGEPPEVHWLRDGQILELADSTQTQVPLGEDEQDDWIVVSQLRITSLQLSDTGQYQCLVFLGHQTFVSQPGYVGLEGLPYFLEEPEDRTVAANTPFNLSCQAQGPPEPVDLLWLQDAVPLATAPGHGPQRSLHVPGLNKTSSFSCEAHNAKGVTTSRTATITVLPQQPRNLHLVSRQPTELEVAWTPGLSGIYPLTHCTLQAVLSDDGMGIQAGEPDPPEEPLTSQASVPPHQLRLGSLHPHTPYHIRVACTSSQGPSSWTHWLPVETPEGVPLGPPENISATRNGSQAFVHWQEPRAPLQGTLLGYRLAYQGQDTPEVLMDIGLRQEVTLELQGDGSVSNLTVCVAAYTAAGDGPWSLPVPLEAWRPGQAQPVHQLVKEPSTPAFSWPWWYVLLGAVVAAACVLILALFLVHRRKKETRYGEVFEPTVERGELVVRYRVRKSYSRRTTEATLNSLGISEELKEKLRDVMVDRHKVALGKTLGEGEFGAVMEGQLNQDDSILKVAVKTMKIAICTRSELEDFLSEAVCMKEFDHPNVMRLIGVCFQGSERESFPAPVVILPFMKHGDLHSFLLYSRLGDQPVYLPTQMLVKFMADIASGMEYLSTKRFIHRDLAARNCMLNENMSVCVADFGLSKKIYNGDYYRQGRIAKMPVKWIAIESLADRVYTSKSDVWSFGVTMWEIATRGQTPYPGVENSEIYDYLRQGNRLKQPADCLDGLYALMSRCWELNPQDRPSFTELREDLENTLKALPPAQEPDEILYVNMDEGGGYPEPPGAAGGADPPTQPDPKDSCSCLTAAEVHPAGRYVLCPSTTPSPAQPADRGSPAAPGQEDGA
Procedure: (§1) Purified recombinant human AXL, TYRO3 and MER proteins were purchased from Invitrogen™. 10 nM AXL, 2 nM TYRO3 or MER were incubated with varying concentrations of compounds in 50 mM HEPES, pH 7.4, 10 mM MgCl2, 0.01% BSA, 1 mM DTT and 2% DMSO in a total volume of 20 μl in a 384-well microplate (Corning™ #3640) at RT for 1 h. The AXL, TYRO3 and MER enzymatic reaction was initiated by transferring 10 μl of enzyme and compound mixture into 10 μl of 1.6 μM TK Substrate-biotin (HTRF® KinEASE-TK kit, Cisbio) and 1400 μM ATP pre-incubated in 50 mM HEPES, pH 7.4, 10 mM MgCl2, 0.01% BSA, 1 mM DTT in a 384-well microplate (Corning™ #3640) at RT, giving the final reaction conditions: 5 nM AXL, 1 nM TYRO3 or MER, 800 nM TK Substrate-biotin and 700 μM ATP in 50 mM HEPES, pH 7.4, 10 mM MgCl2, 0.01% BSA, 1 mM DTT and 1% DMSO with varying concentrations of compounds. Following 2 h incubation at RT, the AXL, TYRO3 and MER enzymatic reaction was stopped by transfer of 10 μl of reaction into 10 μl of detection mix (400 nM Streptavidin-XL665, 200-fold dilution TK Antibody-Cryptate and detection buffer, HTRF® KinEASE-TK kit, Cisbio) in a white 384-well microplate (Perkin Elmer, OptiPlate 384). After 1 h incubation at RT, the plate was put into a plate reader (Evision) to read at 665/620 nm (acceptor/donor) for HTRF. The value of the DMSO blank (MIN inhibition=100% activity) was used as a negative control. The positive control was established by adding 5 μl of enzyme and DMSO mixture into 10 μl of detection mix followed by addition of 5 μl of TK Substrate-biotin and ATP mixture (MAX inhibition=0% activity). To calculate the percent activity, Equation 1 was used. Ratio 665/620 is the value at a given compound concentration: […]

[2] = molecular target: T2, human TYRO3 (Homo sapiens, UniProt Q06418); experiment: HTRF KinEASE-TK biochemical potency assay, TYRO3; settings: 1 nM TYRO3, 700 μM ATP, 800 nM TK Substrate-biotin
T2 construct: purchased Invitrogen
T2 sequence (Q06418 41-890): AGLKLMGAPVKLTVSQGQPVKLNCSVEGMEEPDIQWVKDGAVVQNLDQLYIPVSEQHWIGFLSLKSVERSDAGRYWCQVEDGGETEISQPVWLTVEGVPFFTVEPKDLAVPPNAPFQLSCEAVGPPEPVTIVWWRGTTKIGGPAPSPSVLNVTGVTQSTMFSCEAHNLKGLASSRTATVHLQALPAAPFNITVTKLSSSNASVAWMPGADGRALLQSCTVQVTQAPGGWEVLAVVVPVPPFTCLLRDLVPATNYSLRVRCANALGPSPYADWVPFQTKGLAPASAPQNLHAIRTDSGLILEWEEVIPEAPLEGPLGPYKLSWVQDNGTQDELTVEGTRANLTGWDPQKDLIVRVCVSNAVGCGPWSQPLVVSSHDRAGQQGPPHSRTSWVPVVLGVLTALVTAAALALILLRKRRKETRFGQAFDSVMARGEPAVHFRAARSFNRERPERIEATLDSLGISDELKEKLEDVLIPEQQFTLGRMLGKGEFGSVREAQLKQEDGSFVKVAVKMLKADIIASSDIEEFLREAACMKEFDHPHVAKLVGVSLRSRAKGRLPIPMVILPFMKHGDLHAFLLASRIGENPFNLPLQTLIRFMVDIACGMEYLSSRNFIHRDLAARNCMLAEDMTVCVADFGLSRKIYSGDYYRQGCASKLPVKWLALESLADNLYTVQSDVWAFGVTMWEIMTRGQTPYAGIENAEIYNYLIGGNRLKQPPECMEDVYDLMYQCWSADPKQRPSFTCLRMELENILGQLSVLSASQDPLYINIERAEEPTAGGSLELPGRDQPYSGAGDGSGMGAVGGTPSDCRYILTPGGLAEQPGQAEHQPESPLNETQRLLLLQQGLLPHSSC
Procedure: as §1

Structure (SMILES): CC1(N2CCC[C@H]2CO)CCc2ccc(-c3cnc4[nH]nc(-c5ccc(S(=O)(=O)C6CC6)cc5)c4c3)cc2CC1 (stereo partly drawn) [Example 4, [(2S)-1-(2-{3-[4-(Cyclopropanesulfonyl)phenyl]-1H-pyrazolo[3,4-b]pyridin-5-yl}-7-methyl-6,7,8,9-tetrahydro-5H-benzo[7]annulen-7-yl)pyrrolidin-2-yl]methanol]
- IC50 [1]: < 0.1 µM
- IC50 [2]: 0.1 to 1 µM

Structure (SMILES): C[C@H]1CCCN1C1(C)CCc2ccc(-c3cnc4[nH]nc(-c5ccc(S(=O)(=O)C6CC6)cc5)c4c3)cc2CC1 (stereo partly drawn) [Example 5, (2S)-1-(2-{3-[4-(Cyclopropanesulfonyl)phenyl]-1H-pyrazolo[3,4-b]pyridin-5-yl}-7-methyl-6,7,8,9-tetrahydro-5H-benzo[7]annulen-7-yl)-2-methylpyrrolidine]
- IC50 [1]: < 0.1 µM
- IC50 [2]: < 0.1 µM

Structure (SMILES): CCC1(N2CCC[C@H]2C)CCc2ccc(-c3cnc4[nH]nc(-c5ccc(S(=O)(=O)C6CC6)cc5)c4c3)cc2CC1 (stereo partly drawn) [Example 6, (2R)-1-(2-{3-[4-(Cyclopropanesulfonyl)phenyl]-1H-pyrazolo[3,4-b]pyridin-5-yl}-7-ethyl-6,7,8,9-tetrahydro-5H-benzo[7]annulen-7-yl)-2-methylpyrrolidine]
- IC50 [1]: < 0.1 µM
- IC50 [2]: 0.1 to 1 µM

Structure (SMILES): CC1(N2CCC2)CCc2ccc(-c3cnc4[nH]nc(-c5ccc(S(=O)(=O)C6CC6)cc5)c4c3)cc2CC1 (stereo not drawn) [Example 7, 1-(2-{3-[4-(Cyclopropanesulfonyl)phenyl]-1H-pyrazolo[3,4-b]pyridin-5-yl}-7-methyl-6,7,8,9-tetrahydro-5H-benzo[7]annulen-7-yl)azetidine]
- IC50 [1]: < 0.1 µM
- IC50 [2]: 0.1 to 1 µM

Structure (SMILES): C[C@@H]1CCCN1C1(C)CCc2ccc(-c3cnc4[nH]nc(-c5ccc(S(=O)(=O)C(F)(F)F)cc5)c4c3)cc2CC1 (stereo partly drawn) [Example 8, (2R)-2-Methyl-1-{7-methyl-2-[3-(4-trifluoromethanesulfonylphenyl)-1H-pyrazolo[3,4-b]pyridin-5-yl]-6,7,8,9-tetrahydro-5H-benzo[7]annulen-7-yl}pyrrolidine]
- IC50 [1]: < 0.1 µM
- IC50 [2]: > 1 µM

Structure (SMILES): CC(C)(O)c1ccc(-c2n[nH]c3ncc(-c4ccc5c(c4)CCC(N4CCCC4)CC5)cc23)cn1 (stereo not drawn) [Example 9, 2-(5-{5-[7-(Pyrrolidin-1-yl)-6,7,8,9-tetrahydro-5H-benzo[7]annulen-2-yl]-1H-pyrazolo[3,4-b]pyridin-3-yl}pyridin-2-yl)propan-2-ol]
- IC50 [1]: < 0.1 µM
- IC50 [2]: < 0.1 µM

Structure (SMILES): CC(C)(O)c1ccc(-c2n[nH]c3ncc(-c4ccc5c(c4)CCN(C4CCCC4)CC5)cc23)cn1 [Example 10, 2-{5-[5-(3-Cyclopentyl-2,3,4,5-tetrahydro-1H-3-benzazepin-7-yl)-1H-pyrazolo[3,4-b]pyridin-3-yl]pyridin-2-yl}propan-2-ol]
- IC50 [1]: < 0.1 µM
- IC50 [2]: 0.1 to 1 µM

Structure (SMILES): CC(C)(O)c1ccc(-c2n[nH]c3ncc(-c4ccc5c(c4)CCC(N4CCCC4)CC5)cc23)cc1Cl (stereo not drawn) [Example 11, 2-(2-Chloro-4-{5-[7-(pyrrolidin-1-yl)-6,7,8,9-tetrahydro-5H-benzo[7]annulen-2-yl]-1H-pyrazolo[3,4-b]pyridin-3-yl}phenyl)propan-2-ol]
- IC50 [1]: < 0.1 µM
- IC50 [2]: 0.1 to 1 µM

Structure (SMILES): CC(C)(O)c1ccc(-c2n[nH]c3ncc(-c4ccc5c(c4)CCN(C4CCCC4)CC5)cc23)cc1Cl [Example 12, 2-{2-Chloro-4-[5-(3-cyclopentyl-2,3,4,5-tetrahydro-1H-3-benzazepin-7-yl)-1H-pyrazolo[3,4-b]pyridin-3-yl]phenyl}propan-2-ol]
- IC50 [1]: < 0.1 µM
- IC50 [2]: > 1 µM

Structure (SMILES): CC(C)(O)c1ccc(-c2n[nH]c3ncc(-c4ccc5c(c4)CCN(C4CCCC4)CC5)cc23)cc1C(F)(F)F [Example 16, 2-{4-[5-(3-Cyclopentyl-2,3,4,5-tetrahydro-1H-3-benzazepin-7-yl)-1H-pyrazolo[3,4-b]pyridin-3-yl]-2-(trifluoromethyl)phenyl}propan-2-ol]
- IC50 [1]: < 0.1 µM
- IC50 [2]: 0.1 to 1 µM

Structure (SMILES): CC(C)(O)c1ccc(-c2n[nH]c3ncc(-c4ccc5c(c4)CCN(C4CCCC4)CC5)cc23)c(F)c1 [Example 17, 2-{4-[5-(3-Cyclopentyl-2,3,4,5-tetrahydro-1H-3-benzazepin-7-yl)-1H-pyrazolo[3,4-b]pyridin-3-yl]-3-fluorophenyl}propan-2-ol]
- IC50 [1]: < 0.1 µM
- IC50 [2]: 0.1 to 1 µM

Structure (SMILES): C[C@@H]1CCCN1C1CCc2ccc(-c3cnc4[nH]nc(-c5ccc(C(C)(C)O)c(C(F)(F)F)c5)c4c3)cc2CC1 (stereo partly drawn) [Example 20, 2-[4-(5-{7-[(2R)-2-Methylpyrrolidin-1-yl]-6,7,8,9-tetrahydro-5H-benzo[7]annulen-2-yl}-1H-pyrazolo[3,4-b]pyridin-3-yl)-2-(trifluoromethyl)phenyl]propan-2-ol]
- IC50 [1]: < 0.1 µM
- IC50 [2]: < 0.1 µM

Structure (SMILES): CC(C)(O)c1ccc(-c2n[nH]c3ncc(-c4ccc5c(c4)CCC(N4CCC[C@@H]4CO)CC5)cc23)cc1Cl (stereo partly drawn) [Example 21, 2-[2-Chloro-4-(5-{7-[(2R)-2-(hydroxymethyl)pyrrolidin-1-yl]-6,7,8,9-tetrahydro-5H-benzo[7]annulen-2-yl}-1H-pyrazolo[3,4-b]pyridin-3-yl)phenyl]propan-2-ol]
- IC50 [1]: < 0.1 µM
- IC50 [2]: 0.1 to 1 µM

Structure (SMILES): C[C@@H]1CCCN1C1(C)CCc2ccc(-c3cnc4[nH]nc(-c5ccc(C(C)(C)O)nc5)c4c3)cc2CC1 (stereo partly drawn) [Example 22, 2-[5-(5-{7-Methyl-7-[(2R)-2-methylpyrrolidin-1-yl]-6,7,8,9-tetrahydro-5H-benzo[7]annulen-2-yl}-1H-pyrazolo[3,4-b]pyridin-3-yl)pyridin-2-yl]propan-2-ol]
- IC50 [1]: < 0.1 µM
- IC50 [2]: < 0.1 µM

Structure (SMILES): CS(=O)(=O)N1CCC(c2n[nH]c3ncc(-c4ccc5c(c4)CCC(N4CCCC4)CC5)cc23)CC1 (stereo not drawn) [Example 23, 1-Methanesulfonyl-4-{5-[7-(pyrrolidin-1-yl)-6,7,8,9-tetrahydro-5H-benzo[7]annulen-2-yl]-1H-pyrazolo[3,4-b]pyridin-3-yl}piperidine]
- IC50 [1]: < 0.1 µM
- IC50 [2]: 0.1 to 1 µM
